Patent publication US11299480B2, “2-arylsulfonamido-N-arylacetamide derivatized STAT3 inhibitors” (University of Hawaii, priority 2017, dated 2022)
Entries after “also recorded” stand apart in the source; their conditions may differ. One block for each compound: values may come before it.

Key:
Stat3 [1] = target: Stat3 (Homo sapiens (Human), UniProt P40763); experiment: Stat3 DNA-binding activity in nuclear extracts of treated MDA-MB-231 cells, EMSA; type: cell-based; conditions: 10 μM
Experimental: (§1) FIG. 3. Effects of select compounds of the present invention on Stat3 DNA-binding activity and Stat3 tyrosine phosphorylation in cells. (FIG. 3A) EMSA analysis of Stat3 DNA-binding activity in nuclear extracts of equal total protein prepared from cells treated with DMSO (0 as control, Con), 5 or 10 μM of compounds for 1-34 h. Positions of Stat3:DNA complexes in gel are labeled. […] Positions of Stat3:DNA complexes or proteins in gel are shown; control (0 or Con) lane represents whole-cell lysates or nuclear extracts prepared from 0.05% DMSO-treated cells. […] Data are representative of 2-3 independent determinations.
The ^32P-labeled oligonucleotide probes used were hSIE (high affinity sis-inducible element from the c-fos gene, m67 variant, 5′-[…]) (SEQ ID NO: 1) that binds Stat1 and Stat3 and MGFe (mammary gland factor element from the bovine β-casein gene promoter, 5′-[…]) (SEQ ID NO: 2) for Stat1 and Stat5 binding. Except where indicated, nuclear extracts were pre-incubated with compound for 30 min at room temperature prior to incubation with the radiolabeled probe for 30 min at 30° C. before subjecting to EMSA analysis. Where appropriate, bands corresponding to Stat3:DNA complexes were scanned and quantified for each concentration of compound using ImageJ and plotted as percent of control (DMSO) against concentration of compound, from which the IC50 values were derived.
Select compounds of the invention were investigated for their inhibitory effects of the active analogs on intracellular Stat3 signaling. […] Nuclear extracts were prepared and subjected to EMSA analysis for Stat3 DNA-binding activity. […] Stat3 DNA-binding activity in MDA-MB-231 cells was inhibited by both Examples 1 and 5 following treatment at 3 h, with little change at 1 h (FIG. 3A).

C8161 = experiment: Cell viability, C8161 metastatic melanoma cells; type: cell-based, human; conditions: C8161, 48 h, 10 and 20 micromolar
Experimental: (§2) FIG. 5. Effects of select compounds of the present invention on cell viability, growth, colony survival and migration in vitro. […] Cell numbers were counted by trypan blue exclusion/phase-contrast microscopy every […], and cell growth curve was plotted.
(§3) Cells in 6-well or 96-well plates were treated with or without compounds for the indicated concentrations and time, and subjected to MTT assay or CyQuant cell proliferation assay (Invitrogen/ThermoFisher Scientific), or harvested and the viable cells were counted by trypan blue exclusion with phase-contrast microscopy.
(§4) Constitutive Stat3 activity promotes tumor cell growth and proliferation and survival (Darnell J E (2005) Nat Med. 11:595-6; Bowman T, et al., (2000) Oncogene 19:2474-2488). Some of the compounds of the present invention were tested against tumor cells harboring constitutively-active Stat3.

MDA-MB-231 [2] = experiment: CyQuant cell viability assay, MDA-MB-231; type: cell-based, human; conditions: MDA-MB-231, CyQuant, 0-10 μM, 72 h
Experimental: (§5) FIG. 6. Effects of select compounds of the present invention on cell viability. […] Cells were first grown in 6-well plates then were treated once with 0-10 μM of the indicated compounds for 72 h. Viable cells were assayed using CyQuant cell proliferation kit and plotted as % cell viability against concentration. Control (0) represents 0.05% DMSO-treated cells. Values, mean ± S.D. of 2-3 independent determinations.
as §3, §4

1205LU = experiment: Cell viability, 1205LU metastatic melanoma cells; type: cell-based, human; conditions: 48 h, 10 and 20 micromolar
Experimental: as §2, §3, §4

pY705Stat3 [3] = experiment: Constitutive Stat3 tyrosine phosphorylation, immunoblot, MDA-MB-231 cells; type: cell-based, human
Experimental: as §1
(§6) All antibodies tested were purchased from Cell Signaling Technology.
(§7) Altogether, the new analogs show strong, albeit variable degrees of inhibition of constitutive Stat3 DNA-binding activity and Tyr phosphorylation in human tumor cells.

pY705Stat3 [4] = experiment: Constitutive Stat3 Tyr705 phosphorylation, immunoblot, UACC903 metastatic melanoma cells; type: cell-based, human; conditions: UACC903, 10 or 20 μM for 1 and 3 h
Experimental: as §1, §6, §7

pY705Stat3 [5] = experiment: Constitutive Stat3 Tyr705 phosphorylation, immunoblot, 1205LU metastatic melanoma cells; type: cell-based, human; conditions: 10 or 20 μM for 1 and 3 h
Experimental: as §1, §6, §7

C81-61 = experiment: Cell viability, C81-61 melanoma cells; type: cell-based, human; conditions: C81-61, 48 h, 10 and 20 micromolar
Experimental: as §2, §3, §4

AR7119 = experiment: Cell viability, immortalized normal melanocytes AR7119; type: cell-based, human; conditions: AR7119 (no aberrant Stat3 activation), 48 h
Experimental: as §2, §3, §4

Stat1 = Stat1 DNA-binding activity in vitro, EMSA (MGFe probe); type: biochemical; conditions: for effect on Stat1 DNA-binding activity: 10 μM or 0-30 μM compound
Source text: FIG. 2. Effects of select compounds of the present invention on Stat1 and Stat5 DNA-binding activity. […] Positions of Stat:DNA complexes in gel are labeled; control lanes (0 or Con) represent nuclear extracts pre-treated with 10% DMSO. Data are representative of 1-3 independent determinations. […] Where appropriate, bands corresponding to Stat3:DNA complexes were scanned and quantified for each concentration of compound using ImageJ and plotted as percent of control (DMSO) against concentration of compound, from which the IC50 values were derived. In order to determine the specificity of select new analogs active against Stat3 activity, the inventors investigated the effects on the inhibition of other STAT family members, including Stat1 and Stat5 DNA-binding activity in vitro.

pY705Stat3 [6] = experiment: Constitutive Stat3 Tyr705 phosphorylation, immunoblot, C8161 metastatic melanoma cells; type: cell-based, human; conditions: C8161, 10 or 20 μM for 1 and 3 h
Experimental: as §1, §6, §7

Stat5 = Stat5 DNA-binding activity in vitro, EMSA (MGFe probe); type: biochemical; conditions: 10 μM or 0-30 μM compound
Source text: FIG. 2. […] Positions of Stat:DNA complexes in gel are labeled; control lanes (0 or Con) represent nuclear extracts pre-treated with 10% DMSO. […] Where appropriate, bands corresponding to Stat3:DNA complexes were scanned and quantified for each concentration of compound using ImageJ and plotted as percent of control (DMSO) against concentration of compound, from which the IC50 values were derived.

MDA-MB-468 = experiment: CyQuant cell viability assay, MDA-MB-468; type: cell-based, human; conditions: MDA-MB-468, CyQuant, 0-10 μM, 72 h
Experimental: as §5, §3, §4

MEF/Stat3−/− = experiment: Cell viability, Stat3 null mouse embryonic fibroblasts; type: cell-based; conditions: 48-72 h
Experimental: as §2, §3, §4

pY705Stat3 [7] = experiment: Constitutive Stat3 tyrosine phosphorylation, immunoblot, MDA-MB-468 cells; type: cell-based, human
Experimental: as §1, §6, §7

MCF7 = experiment: CyQuant cell viability assay, MCF7; type: cell-based, human; conditions: 72 h
Experimental: as §5, §3, §4

MDA-MB-231 [8] = experiment: Cell growth, trypan blue exclusion/phase-contrast microscopy, MDA-MB-231; type: cell-based, human
Experimental: as §2, §3, §4

NIH3T3 mouse fibroblasts = experiment: Cell growth, trypan blue exclusion/phase-contrast microscopy, NIH3T3; type: cell-based; conditions: NIH3T3 (no aberrantly-active Stat3), trypan blue exclusion, 72 h
Experimental: as §2, §3, §4

Stat3 [9] = target: Stat3 (Mus musculus, UniProt P42227); type: biochemical; conditions: EMSA; read-out: IC50, inhibition of Stat3 DNA-binding activity in vitro
Experimental: FIG. 1. Effect of select compounds of the present invention on Stat3 DNA-binding activity in vitro. […] Positions of Stat3:DNA complexes in gel are labeled; control lanes (0) represent nuclear extracts pre-treated with 10% DMSO.
Except where indicated, nuclear extracts were pre-incubated with compound for 30 min at room temperature prior to incubation with the radiolabeled probe for 30 min at 30° C. before subjecting to EMSA analysis. Where appropriate, bands corresponding to Stat3:DNA complexes were scanned and quantified for each concentration of compound using ImageJ and plotted as percent of control (DMSO) against concentration of compound, from which the IC50 values were derived.

pJak2 = experiment: Stat3-independent signaling, immunoblot of pJak2, MDA-MB-231 cells; type: cell-based, human; conditions: MDA-MB-231, 5 μM, 24 h treatment
Source text: (§8) FIG. 4. Effects of select compounds of the present invention on Stat3-independent signal transduction events. […] Positions of proteins in gel are labeled; control lane (Con) represents whole-cell lysate prepared from 0.05% DMSO-treated cells.
as §6, §7

pSrc = experiment: Stat3-independent signaling, immunoblot of pSrc, MDA-MB-231 cells; type: cell-based, human; conditions: MDA-MB-231, 5 μM, 24 h treatment
Source text: as §8, §6, §7

pERK1/2 = experiment: Stat3-independent signaling, immunoblot of pERK1/2, MDA-MB-231 cells; type: cell-based, human; conditions: MDA-MB-231, 5 μM, 24 h treatment
Source text: as §8, §6, §7

Sequence of Stat3 (Homo sapiens (Human), UniProt P40763) (P40763 whole entry): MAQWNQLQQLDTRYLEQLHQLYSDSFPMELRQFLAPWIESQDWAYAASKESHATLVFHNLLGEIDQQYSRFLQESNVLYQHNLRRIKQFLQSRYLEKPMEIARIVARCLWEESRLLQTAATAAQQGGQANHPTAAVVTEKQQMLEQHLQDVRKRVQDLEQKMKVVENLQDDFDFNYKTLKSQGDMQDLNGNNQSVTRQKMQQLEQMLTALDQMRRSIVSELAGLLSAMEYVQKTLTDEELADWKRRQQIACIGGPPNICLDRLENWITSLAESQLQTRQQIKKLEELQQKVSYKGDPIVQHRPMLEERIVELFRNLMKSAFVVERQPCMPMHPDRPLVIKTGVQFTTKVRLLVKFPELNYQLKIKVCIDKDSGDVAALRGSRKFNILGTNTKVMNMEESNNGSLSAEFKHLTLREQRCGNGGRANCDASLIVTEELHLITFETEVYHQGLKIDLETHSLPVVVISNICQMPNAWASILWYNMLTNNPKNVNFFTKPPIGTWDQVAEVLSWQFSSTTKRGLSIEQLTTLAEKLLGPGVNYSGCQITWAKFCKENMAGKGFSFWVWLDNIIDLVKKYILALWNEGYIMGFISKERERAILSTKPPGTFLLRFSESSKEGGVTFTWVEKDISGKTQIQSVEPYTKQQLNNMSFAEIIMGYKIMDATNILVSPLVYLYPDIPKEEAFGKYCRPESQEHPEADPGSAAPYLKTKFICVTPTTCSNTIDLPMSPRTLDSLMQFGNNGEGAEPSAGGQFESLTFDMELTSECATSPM
Sequence of Stat3 (Mus musculus, UniProt P42227) (P42227 2-770 limits assumed): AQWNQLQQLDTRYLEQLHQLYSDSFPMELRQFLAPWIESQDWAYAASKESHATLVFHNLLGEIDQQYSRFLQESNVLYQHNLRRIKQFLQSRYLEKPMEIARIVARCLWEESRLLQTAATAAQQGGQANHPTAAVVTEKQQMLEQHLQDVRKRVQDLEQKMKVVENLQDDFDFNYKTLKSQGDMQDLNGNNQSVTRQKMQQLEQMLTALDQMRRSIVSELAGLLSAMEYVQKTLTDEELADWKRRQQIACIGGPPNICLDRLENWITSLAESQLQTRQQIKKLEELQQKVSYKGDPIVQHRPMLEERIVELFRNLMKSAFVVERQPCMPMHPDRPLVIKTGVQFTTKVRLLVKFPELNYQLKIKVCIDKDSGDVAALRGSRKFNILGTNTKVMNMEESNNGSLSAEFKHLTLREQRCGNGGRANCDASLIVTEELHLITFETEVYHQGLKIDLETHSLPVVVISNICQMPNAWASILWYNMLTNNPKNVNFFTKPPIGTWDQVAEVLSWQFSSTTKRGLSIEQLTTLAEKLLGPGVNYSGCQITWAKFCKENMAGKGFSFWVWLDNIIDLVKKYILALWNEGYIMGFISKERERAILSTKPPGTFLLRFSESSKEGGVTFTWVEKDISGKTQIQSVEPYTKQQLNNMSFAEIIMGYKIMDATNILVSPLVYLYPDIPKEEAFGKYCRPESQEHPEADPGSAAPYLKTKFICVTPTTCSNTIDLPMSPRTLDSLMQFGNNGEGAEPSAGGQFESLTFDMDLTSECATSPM

Stat3 DNA-binding activity in MDA-MB-231 cells (Stat3 [1]; 1 h treatment): little change | Stat3 DNA-binding activity in MDA-MB-231 cells (Stat3 [1]; 3 h treatment): inhibited | effect on Stat1 DNA-binding activity (Stat1): only weakly affected | concentration at which a non-specific effect on Stat1 DNA-binding activity was observed (Stat1; 10 vs 30 μM): 30 µM
Structure (SMILES): C[C@H](C(=O)N(Cc1ccc(C2CCCCC2)cc1)c1ccc(C(=O)O)c(O)c1)N(C)S(=O)(=O)c1c(F)c(F)c(F)c(F)c1F [Example 1, (R)-4-(N-(4-Cyclohexylbenzyl)-2-((2,3,4,5,6-pentafluoro-N-methylphenyl)sulfonamido)propan-amido)-2-hydroxybenzoic acid]
cell viability (C8161): strongly inhibited the viability | cell viability (MDA-MB-231 [2]): suppressed the viability | cell viability (1205LU): strongly inhibited the viability | pY705Stat3 levels (pY705Stat3 [3]; MDA-MB-231, 5 μM, 1 h treatment): inhibited pY705Stat3 levels | constitutive Stat3 Tyr705 phosphorylation (pY705Stat3 [4]): strongly inhibited | constitutive Stat3 Tyr705 phosphorylation (pY705Stat3 [5]): strongly inhibited | cell viability (C81-61): strongly inhibited the viability | cell viability (AR7119): relatively weaker activity | constitutive Stat3 Tyr705 phosphorylation (pY705Stat3 [6]): strongly inhibited | effect on Stat5 DNA-binding activity (Stat5): also disrupted Stat5 DNA-binding activity; also recorded: concentration-dependent | cell viability (MDA-MB-468): suppressed the viability | cell viability (MEF/Stat3−/−): only weakly inhibited the viability | pY705Stat3 levels (pY705Stat3 [7]; MDA-MB-468, 5 μM, 1 h treatment (inhibition stated only for MDA-MB-231)): only inhibited pY705Stat3 levels in MDA-MB-231

effect on Stat1 DNA-binding activity (Stat1): no measureable effect | IC50 (MDA-MB-231 [8]; Homo sapiens, MDA-MB-231, 72 h): 3.9 µM | effect on Stat5 DNA-binding activity (Stat5): no measureable effect | IC50 (Stat3 [9]): 1.8 ± 0.94 µM
Structure (SMILES): C[C@H](C(=O)N(Cc1ccc(C2CCCCC2)cc1)c1ccc(C(=O)O)cc1F)N(C)S(=O)(=O)c1c(F)c(F)c(F)c(F)c1F [Example 37, (R)-4-(N-(4-cyclohexylbenzyl)-2-((2,3,4,5,6-pentafluoro-N-methylphenyl)sulfonamido)propanamido)-3-fluorobenzoic acid]
toxicity to MCF7 cells (MCF7; 10 μM): general toxicity | cell viability (MCF7; MCF7 (no aberrantly-active Stat3), CyQuant): only weakly or not inhibited | cell viability (MDA-MB-231 [2]): suppressed the viability | constitutive pY705Stat3 levels (pY705Stat3 [3]; MDA-MB-231, treatment for 1 h): strongly inhibited | cell growth, time- or dose-dependent (MDA-MB-231 [8]; printed as MDA-MB-231 and/or MDA-MB-468, trypan blue exclusion, 3 μM Example 37 or 5 μM Example 25, 0-96 h): suppressed | IC50 (NIH3T3 mouse fibroblasts): 5.1 µM | cell viability (MDA-MB-468): suppressed the viability | constitutive pY705Stat3 levels (pY705Stat3 [7]; MDA-MB-468, treatment for 1 h): strongly inhibited

Structure (SMILES): Cc1cc(C(=O)O)ccc1N(Cc1ccc(C2CCCCC2)cc1)C(=O)[C@@H](C)N(C)S(=O)(=O)c1c(F)c(F)c(F)c(F)c1F [Example 42, (R)-4-(N-(4-cyclohexylbenzyl)-2-((2,3,4,5,6-pentafluoro-N-methylphenyl)sulfonamido)propanamido)-3-methylbenzoic acid]
effect on pJak2 (pJak2): little effect | effect on pSrc (pSrc): little effect | effect on pERK1/2 (pERK1/2): little effect
